Measured values as given in ChEMBL document CHEMBL5365467 (J Med Chem, 2023).

What was measured:
[1] = test system: VCaP; assay: Antitumor activity against human VCaP cells xenografted in CB17-SCID mouse assessed as tumor growth inhibition at 10 mg/kg, po administered for 21 days; type: functional; details: 504 h, time 21 day, read-out: TGI
[2] = Oral bioavailability in ICR mouse at 5 mg/kg measured upto 24 hrs by LC-MS/MS analysis; type: ADME, organism-based; details: in vivo
[3] = target: Protein cereblon/Androgen receptor (Homo sapiens, UniProt P10275+Q96SW2, T878A); assay: PROTAC activity at AR T878A mutant/CRBN in human LNCaP cells assessed as induction of androgen receptor degradation measured at 24 hrs by Western blot analysis; type: cell-based
Chain of Protein cereblon/Androgen receptor (P10275 whole entry T878A, stated change not applied): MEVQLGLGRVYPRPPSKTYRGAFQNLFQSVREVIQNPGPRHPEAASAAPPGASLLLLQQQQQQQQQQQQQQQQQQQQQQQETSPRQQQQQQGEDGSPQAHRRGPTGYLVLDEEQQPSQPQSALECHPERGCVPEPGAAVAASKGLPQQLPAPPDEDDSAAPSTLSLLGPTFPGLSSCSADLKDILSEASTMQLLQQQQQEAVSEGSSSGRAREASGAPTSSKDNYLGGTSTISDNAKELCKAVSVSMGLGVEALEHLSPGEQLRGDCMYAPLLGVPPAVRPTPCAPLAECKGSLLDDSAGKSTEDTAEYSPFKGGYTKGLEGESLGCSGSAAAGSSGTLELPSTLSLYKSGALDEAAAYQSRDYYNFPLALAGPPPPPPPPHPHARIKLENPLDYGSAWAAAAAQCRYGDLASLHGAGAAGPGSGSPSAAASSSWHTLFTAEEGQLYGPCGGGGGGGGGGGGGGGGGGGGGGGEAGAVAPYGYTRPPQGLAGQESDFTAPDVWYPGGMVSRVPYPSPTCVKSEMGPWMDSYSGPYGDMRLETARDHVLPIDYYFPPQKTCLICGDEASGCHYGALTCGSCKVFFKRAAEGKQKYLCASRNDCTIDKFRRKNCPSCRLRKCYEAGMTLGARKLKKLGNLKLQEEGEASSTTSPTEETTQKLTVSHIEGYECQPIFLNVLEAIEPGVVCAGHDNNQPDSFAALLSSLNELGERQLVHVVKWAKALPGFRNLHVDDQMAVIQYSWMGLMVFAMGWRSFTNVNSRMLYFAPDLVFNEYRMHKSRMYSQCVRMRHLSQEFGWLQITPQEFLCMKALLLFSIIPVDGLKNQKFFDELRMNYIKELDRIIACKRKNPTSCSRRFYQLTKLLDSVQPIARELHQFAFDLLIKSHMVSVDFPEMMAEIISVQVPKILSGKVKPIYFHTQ
Chain of Protein cereblon/Androgen receptor (Q96SW2 whole entry, stated change not applied): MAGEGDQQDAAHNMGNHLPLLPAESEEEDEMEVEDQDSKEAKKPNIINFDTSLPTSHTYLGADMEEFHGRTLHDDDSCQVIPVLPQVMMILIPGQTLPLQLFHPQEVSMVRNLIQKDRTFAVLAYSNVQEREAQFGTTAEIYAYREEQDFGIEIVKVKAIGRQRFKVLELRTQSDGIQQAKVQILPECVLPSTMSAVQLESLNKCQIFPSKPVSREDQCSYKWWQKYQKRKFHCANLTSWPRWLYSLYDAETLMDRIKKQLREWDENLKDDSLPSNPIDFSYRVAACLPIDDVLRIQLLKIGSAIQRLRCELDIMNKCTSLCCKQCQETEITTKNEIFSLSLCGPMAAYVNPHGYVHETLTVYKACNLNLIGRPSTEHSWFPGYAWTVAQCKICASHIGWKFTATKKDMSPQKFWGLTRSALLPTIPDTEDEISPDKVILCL

[4] = Half life in Sprague-Dawley rat at 2 mg/kg, iv measured upto 24 hrs by LC-MS/MS analysis; details: in vivo
[5] = Volume of distribution at steady state in Sprague-Dawley rat at 2 mg/kg, iv measured upto 24 hrs by LC-MS/MS analysis; details: in vivo
[6] = Clearance in Sprague-Dawley rat at 2 mg/kg, iv measured upto 24 hrs by LC-MS/MS analysis; details: in vivo
[7] = Half life in Sprague-Dawley rat at 5 mg/kg, po measured upto 24 hrs by LC-MS/MS analysis; details: in vivo
[8] = test system: LNCaP; assay: Growth inhibition in human LNCaP cells assessed as reduction in cell viability
[9] = Metabolic stability in mouse liver microsome assessed as half life measured upto 45 mins in presence of NADPH by LC-MS/MS analysis; type: ADME; details: liver microsomes
[10] = Metabolic stability in rat liver microsome assessed as half life measured upto 45 mins in presence of NADPH by LC-MS/MS analysis; type: ADME; details: liver microsomes
[11] = Metabolic stability in dog liver microsome assessed as half life measured upto 45 mins in presence of NADPH by LC-MS/MS analysis; type: ADME, Canis lupus familiaris; details: liver microsomes
[12] = Metabolic stability in non human primate liver microsome assessed as half life measured upto 45 mins in presence of NADPH by LC-MS/MS analysis; type: ADME; details: primates, liver microsomes
[13] = Metabolic stability in mouse liver microsome assessed as parent compound remaining measured at 120 mins in presence of NADPH by LC-MS/MS analysis; type: ADME; details: liver microsomes, read-out: Stability
[14] = Metabolic stability in human liver microsome assessed as parent compound remaining measured at 120 mins in presence of NADPH by LC-MS/MS analysis; type: ADME; details: liver microsomes, read-out: Stability
[15] = Metabolic stability in mouse hepatocyte assessed as half life measured upto 120 mins by LC-MS/MS analysis; type: ADME, cell-based; details: hepatocytes
[16] = Metabolic stability in rat hepatocyte assessed as half life measured upto 120 mins by LC-MS/MS analysis; type: ADME, cell-based; details: hepatocytes
[17] = Metabolic stability in dog hepatocyte assessed as half life measured upto 120 mins by LC-MS/MS analysis; type: ADME, cell-based, Canis lupus familiaris; details: hepatocytes
[18] = Metabolic stability in mouse plasma assessed as half life measured after 2 hrs by LC-MS/MS analysis; type: ADME, cell-free
[19] = Metabolic stability in dog plasma assessed as half life measured after 2 hrs by LC-MS/MS analysis; type: ADME, cell-free, Canis lupus familiaris
[20] = Metabolic stability in non human primate plasma assessed as half life measured after 2 hrs by LC-MS/MS analysis; type: ADME, cell-free; details: primates
[21] = Metabolic stability in human plasma assessed as half life measured after 2 hrs by LC-MS/MS analysis; type: ADME, cell-free
[22] = Metabolic stability in rat plasma assessed as parent compound remaining measured after 120 mins by LC-MS/MS analysis; type: ADME, cell-free; details: read-out: Stability
[23] = Metabolic stability in dog plasma assessed as parent compound remaining measured after 120 mins by LC-MS/MS analysis; type: ADME, cell-free, Canis lupus familiaris; details: read-out: Stability
[24] = Metabolic stability in human plasma assessed as parent compound remaining measured after 120 mins by LC-MS/MS analysis; type: ADME, cell-free; details: read-out: Stability
[25] = Half life in ICR mouse at 2 mg/kg, iv measured upto 24 hrs by LC-MS/MS analysis; type: ADME, organism-based; details: in vivo
[26] = AUC (0 to t) in ICR mouse at 2 mg/kg, iv measured upto 24 hrs by LC-MS/MS analysis; type: ADME, organism-based; parameters: dose 2 mg/kg, time < 24 hrs, route iv; details: in vivo
[27] = Cmax in ICR mouse at 5 mg/kg, po measured upto 24 hrs by LC-MS/MS analysis; type: ADME, organism-based; parameters: time < 24 hrs, dose 5 mg/kg, route po; details: in vivo
[28] = Half life in Beagle dog at 10 mg/kg, po measured upto 24 hrs by LC-MS/MS analysis; type: ADME, organism-based, Canis lupus familiaris; details: in vivo
[29] = Half life in Beagle dog at 1 mg/kg, iv measured upto 24 hrs by LC-MS/MS analysis; type: ADME, organism-based, Canis lupus familiaris; details: in vivo
[30] = AUC (0 to t) in Beagle dog at 1 mg/kg, iv measured upto 24 hrs by LC-MS/MS analysis; type: ADME, organism-based, Canis lupus familiaris; parameters: dose 1 mg/kg, time < 24 hrs, route iv; details: in vivo
[31] = Clearance in Beagle dog at 1 mg/kg, iv measured upto 24 hrs by LC-MS/MS analysis; type: ADME, organism-based, Canis lupus familiaris; details: in vivo
[32] = Tmax in Beagle dog at 10 mg/kg, po measured upto 24 hrs by LC-MS/MS analysis; type: ADME, organism-based, Canis lupus familiaris; details: in vivo
[33] = Cmax in Beagle dog at 10 mg/kg, po measured upto 24 hrs by LC-MS/MS analysis; type: ADME, organism-based, Canis lupus familiaris; parameters: time < 24 hrs, dose 10 mg/kg, route po; details: in vivo
[34] = AUC (0 to t) in Beagle dog at 10 mg/kg, po measured upto 24 hrs by LC-MS/MS analysis; type: ADME, organism-based, Canis lupus familiaris; parameters: time < 24 hrs, dose 10 mg/kg, route po; details: in vivo
[35] = Oral bioavailability in Beagle dog at 10 mg/kg measured upto 24 hrs by LC-MS/MS analysis; type: ADME, organism-based, Canis lupus familiaris; details: in vivo
[36] = Half life in non human primate assessed as half life at 1 mg/kg, iv measured upto 24 hrs by LC-MS/MS analysis; type: ADME, organism-based; details: primates, in vivo
[37] = AUC (0 to t) in non human primate at 1 mg/kg, iv measured upto 24 hrs by LC-MS/MS analysis; type: ADME, organism-based; parameters: dose 1 mg/kg, time < 24 hrs, route iv; details: primates, in vivo
[38] = Volume of distribution at steady state in non human primate at 1 mg/kg, iv measured upto 24 hrs by LC-MS/MS analysis; type: ADME, organism-based; details: primates, in vivo, read-out: Vdss
[39] = Clearance in non human primate at 1 mg/kg, iv measured upto 24 hrs by LC-MS/MS analysis; type: ADME, organism-based; details: primates, in vivo
[40] = Tmax in non human primate at 2 mg/kg, po measured upto 24 hrs by LC-MS/MS analysis; type: ADME, organism-based; details: primates, in vivo
[41] = Half life in non human primate at 2 mg/kg, po measured upto 24 hrs by LC-MS/MS analysis; type: ADME, organism-based; details: primates, in vivo
[42] = AUC (0 to t) in non human primate at 2 mg/kg, po measured upto 24 hrs by LC-MS/MS analysis; type: ADME, organism-based; parameters: time < 24 hrs, dose 2 mg/kg, route po; details: primates, in vivo
[43] = Oral bioavailability in non human primate at 2 mg/kg measured upto 24 hrs by LC-MS/MS analysis; type: ADME, organism-based; details: primates, in vivo
[44] = Toxicity in CB17-SCID mouse assessed as body weight loss at 10 to 40 mg/kg, po administered for 21 days; type: organism-based; details: in vivo, 504 h, dose 10-40 mg/kg, time 21 day
[45] = in vivo; details: Sprague-Dawley, rat, iv, 2 mg/kg
[46] = in vivo; details: Sprague-Dawley, rat, po, 5 mg/kg
[47] = in vivo; details: Sprague-Dawley, rat, po, 5 mg/kg; remark: listed apart in the source
[48] = in vivo; details: Sprague-Dawley, rat, po, 5 mg/kg; remark: listed apart in the source

C[C@H]1CC2(CCN(c3ccc(C(=O)N4CCC(CN5Cc6cc7c(cc6C5)C(=O)N(C5CCC(=O)NC5=O)C7=O)CC4)cc3)CC2)CN1c1ccc(C#N)c(Cl)c1 (stereo partly drawn) showed an inhibition in vivo at 10 mg/kg [1] of 50%, a bioavailability [2] of 67% and a DC50 [3] of 1.1 nM. It also gave a half-life at 24 h [4] of 4.5 h, a Vd at 24 h [5] of 1.7 L/kg and a clearance at 24 h [6] of 6 mL/min/kg. The half-life at 24 h [7] was 5.6 h, the IC50 [8] was 2.8 nM and the half-life at […] [9] was greater than 1 h. For the same compound, the half-life at […] [10] was greater than 1 h, the half-life at […] [11] was greater than 1 h and the half-life at […] [12] was greater than 1 h. The remaining at 2 h [13] was 82%, the remaining at 2 h [14] was 84% and the half-life [15] was greater than 2 h. For the same compound, the half-life [16] was greater than 2 h, the half-life [17] was greater than 2 h and the half-life [18] was greater than 2 h. It also gave a half-life [19] greater than 2 h, a half-life [20] greater than 2 h and a half-life [21] greater than 2 h. For the same compound, the remaining at 2 h [22] was 52%, the remaining at 2 h [23] was 71% and the remaining at 2 h [24] was 69%. For the same compound, the half-life [25] was 4.3 h, the AUC(0-t) at 24 h [26] was 50500 ng·h/mL and the Cmax [27] was 9120 ng/mL. The half-life [28] was 27.4 h, the half-life [29] was 9.9 h and the AUC(0-t) at 24 h [30] was 4860 ng·h/mL. For the same compound, the clearance [31] was 3.17 mL/min/kg, the Tmax [32] was 3 h and the Cmax [33] was 1030 ng/mL. For the same compound, the AUC(0-t) at 24 h [34] was 15200 ng·h/mL, the bioavailability [35] was 31% and the half-life [36] was 10 h. It also gave an AUC(0-t) at 24 h [37] of 5170 ng·h/mL, a Vd [38] of 2.07 L/kg and a clearance [39] of 3.33 mL/min/kg. The Tmax [40] was 3.33 h, the half-life [41] was 9.62 h and the AUC(0-t) at 24 h [42] was 10300 ng·h/mL. For the same compound, the bioavailability [43] was 99%, the Activity [44] was “Non-Toxic” and the AUC(0-t) at 24 h [45] was 5490 ng·h/mL. The Cmax at 24 h [46] was 871 ng/mL, the AUC(0-t) at 24 h [47] was 6020 ng·h/mL and the bioavailability at 24 h [48] was 44%.
